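Following 48 hours of exposure in 96-well plates, responses at five concentrations were used to interpolate endpoints linearly. At the GI50, growth is halved.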 Activity calls are given as the source filed them. Rule as the data show it: active = GI50 up to about 1.1 µM and inactive = higher.
Assays:
Experiment in all cases: NCI anticancer screen, dose series, 48 h
CAKI-1 = system: CAKI-1
DU-145 = system: DU-145
EKVX = system: EKVX
HCT-116 = system: HCT-116
HL-60 = system: HL-60
K562 = system: K562
KM12 = system: KM12
MDA-MB-435 = system: MDA-MB-435
NCI-H23 = system: NCI-H23
NCI-H460 = system: NCI-H460
OVCAR-4 = system: OVCAR-4
OVCAR-5 = system: OVCAR-5
OVCAR-8 = system: OVCAR-8
RPMI-8226 = system: RPMI-8226
RXF 393 = system: RXF 393
SF-268 = system: SF-268
SK-MEL-28 = system: SK-MEL-28
SK-MEL-5 = system: SK-MEL-5
SW-620 = system: SW-620
CCRF-CEM = system: CCRF-CEM

Measured: GI50

CCC(C)[C@H]1C(=O)N=C(N)N1C(=O)OCc1ccccc1 (stereo not given in full)
inactive: CAKI-1 > 100 µM | DU-145 > 100 µM | EKVX > 100 µM | HCT-116 > 100 µM | HL-60 > 100 µM | K562 > 100 µM | KM12 > 100 µM | MDA-MB-435 > 100 µM | NCI-H23 > 100 µM | NCI-H460 > 100 µM | OVCAR-4 > 100 µM | OVCAR-5 > 100 µM | OVCAR-8 > 100 µM | RPMI-8226 > 100 µM | RXF 393 > 100 µM | SF-268 > 100 µM | SK-MEL-28 > 100 µM | SK-MEL-5 > 100 µM | SW-620 > 100 µM

Cc1cc2nc3ccccc3n2c2nc(N)ccc12
inactive: CAKI-1 20.9 µM | CCRF-CEM 38.5 µM | DU-145 52.6 µM | EKVX 53 µM | HCT-116 14.8 µM | HL-60 17.6 µM | K562 54.1 µM | KM12 33 µM | MDA-MB-435 49.5 µM | NCI-H23 43 µM | NCI-H460 4.02 µM | OVCAR-4 44.9 µM | OVCAR-5 61.2 µM | OVCAR-8 15.8 µM | RPMI-8226 14.8 µM | RXF 393 41.2 µM | SF-268 37.1 µM | SK-MEL-5 13.6 µM | SW-620 25.4 µM

O=C(C/C=C/c1ccccc1)c1ccccc1
inactive: CAKI-1 17 µM | CCRF-CEM 22.2 µM | DU-145 16 µM | EKVX 35.5 µM | HCT-116 17.4 µM | HL-60 16.1 µM | KM12 11.1 µM | MDA-MB-435 18 µM | NCI-H23 15.1 µM | NCI-H460 19.9 µM | OVCAR-5 28.6 µM | OVCAR-8 15.7 µM | RPMI-8226 28.2 µM | RXF 393 15.8 µM | SF-268 20.7 µM | SK-MEL-28 27.2 µM | SK-MEL-5 19.5 µM | SW-620 31.2 µM

O=S(=O)(Nc1ccccc1)c1ccc(-c2c3nc(c(-c4ccc(S(=O)(=O)Nc5ccccc5)cc4)c4ccc([nH]4)c(-c4ccc(S(=O)(=O)Nc5ccccc5)cc4)c4nc(c(-c5ccc(S(=O)(=O)Nc6ccccc6)cc5)c5ccc2[nH]5)C=C4)C=C3)cc1
inactive: CAKI-1 > 31.6 µM | CCRF-CEM > 31.6 µM | DU-145 > 31.6 µM | EKVX > 31.6 µM | HCT-116 > 31.6 µM | HL-60 > 31.6 µM | K562 > 31.6 µM | KM12 > 31.6 µM | MDA-MB-435 > 31.6 µM | NCI-H23 > 31.6 µM | NCI-H460 11.6 µM | OVCAR-4 12.6 µM | OVCAR-5 > 31.6 µM | OVCAR-8 > 31.6 µM | RXF 393 > 31.6 µM | SF-268 > 31.6 µM | SK-MEL-28 > 10 µM | SK-MEL-5 > 31.6 µM | SW-620 > 31.6 µM

Source: ChEMBL document CHEMBL1201862, “PubChem BioAssay data set” (2004)
